In patent US8440790B2, “Crystal structure of the CCZ-LZ domain of NEMO” (Les Laboratoires Servier, priority 2008, dated 2013):

Key:
NF-κB pathway = experiment: Functional complementation in NEMO-deficient mouse embryo fibroblasts (Igκ-luciferase reporter, TNFα stimulation); format: cell-based; conditions: NEMO-deficient MEF transiently transfected with NEMO variant and Igκ-luciferase reporter; TNFα stimulation for 24 hours; compared with wild-type NEMO
Excerpt: The capabilities of the wild-type NEMO protein and of the above-defined mutant NEMO proteins in restoring activation of the NF-κB pathway in response to the proinflammatory cytokine TNF-α are compared and illustrated in FIG. 5. For that purpose, NEMO-deficient mouse embryo fibroblasts (MEF) are transiently co-transfected on the one hand with the plasmid coding for the Igκ-luciferase reporter gene and on the other hand with the plasmids coding for the various proteins, and then stimulated with TNFα for 24 hours. The wild-type protein completely restores the NF-κB pathway whereas TNFα-dependent activation of the NF-κB pathway is affected by the mutant proteins in differing degrees.
NEMO-deficient mouse embryo fibroblasts (MEF) are cultured in cell culture jars and transiently transfected with a mixture containing: 0.2 μg of a plasmid pEF1 coding for β-galactosidase, 0.5 μg of a plasmid containing the Igk-luciferase reporter gene and 2 μg of plasmids expressing the different variants of NEMO. Twenty-four hours after transfection, the cells are activated with TNFα (20 ng/ml) for 24 hours. The cells are then recovered and then lysed in 110 μl of a buffer of 25 mM Tris/Phosphate pH 7.8, 8 mM MgCl2, 1% Triton, 1 mM dithiothreitol, 15% to glycerol to which a cocktail of proteases is added (Roche). […] The activity of the reporter gene is measured.

[1] = Gel filtration of the wild-type CC2-LZ protein and the mutant F312A; format: physicochemical; conditions: CC2-LZ domain of NEMO; compared with wild-type CC2-LZ protein
Protocol: The gel filtration experiments are carried out at 4° C. on a Superdex 75 HR 10/30 column (Amersham Biosciences). The column is equilibrated in a buffer of Tris/HCl 50 mM pH7.5, NaCl 200 mM, DTE 0.2 mM at 4° C. with a flow rate of 0.5 ml/min. A sample of constant volume (200 μl), at a concentration of 0.3 μM, is injected onto the column at a rate of 0.5 ml/min. The proteins are diluted in the equilibration buffer of the column and allowed to stand at 4° C. for 2 hours before injection in order to allow them to equilibrate. In order to detect elution of the proteins, an RF-10 AXL spectrofluorimeter (Shimadzu) is connected on-line to the AKTA apparatus. The intrinsic fluorescence is recorded, measuring the emission of fluorescence of the tyrosine residues at 310 nm after excitation at 280 nm.

Substance | inhibition of TNFα-dependent activation of the NF-κB pathway (NF-κB pathway) [%] | effect of the mutation on the stability of the dimer (elution profile on gel filtration) [1]
A323P: human NEMO protein with point mutation Ala323Pro (position 316 in the mouse), cause of incontinentia pigmenti | 95 | –
F312A: human NEMO / CC2-LZ protein with point mutation Phe312Ala (position 305 in the mouse), within the ubiquitin-binding site | 78 | does not affect the stability of the dimer
